The text below walks through data of PMC7848139, “Novel Hybrid CHC from β-carboline and N-Hydroxyacrylamide Overcomes Drug-Resistant Hepatocellular Carcinoma by Promoting Apoptosis, DNA Damage, and Cell Cycle Arrest” (Frontiers in Pharmacology, 2021).

Each structure is given as a SMILES string.

In one data set the test system is Bel7402/5-FU xenografts. Put plainly: In vivo tumor growth inhibition, Bel7402/5-FU xenograft. Also noted: species or system BALB/c nude mice. The settings on record: 70 μmol/kg, intraperitoneal daily, 21 days, n = 6; saline group 1.47 ± 0.21 g. As for the experimental part:
All animal experimental protocols were approved by the Animal Research and Care Committee of Nantong University. Female BALB/c nude mice at 5∼6 week-old were subcutaneously implanted with 1×10^6 Bel7402/5-FU cells. […] The body mass and tumor size of nude mice were surveyed every three days during the 21 days study. Tumor size (mm^3) of nude mice was determined using the formula: tumor size = ½ (Length×Width^2). Finally, these tumor-bearing mice were sacrificed, and their tumors were removed and weighed at the end of the 21 days.
Data (means ± SD) were from tumor volumes or weight of each group of mice (n = 6 per group). *p < 0.01 vs. control group.

The subject of another data set is Bel7402/5-FU cells. Put plainly: Cell apoptosis analysis by flow cytometry. The settings on record: 5.0 μM, 72 h. It is filed as cell-based, human. How it is done:
Briefly, Bel7402/5-FU cells were cultured in DMEM at 37°C with 5% CO2 for 12 h. […] Then Bel7402/5-FU cells were collected and using APC-Annexin V and 7-AAD to stain these cells under the condition of 37°C for 15 min. Flow cytometry analysis (Calibur, BD, United States) decide the percentage of apoptotic cells according to APC signal (FL4) (excitation wavelength at 633 nm; emission wavelength at 660 nm) and 7-AAD staining signal (FL3) (excitation wavelength at 488 nm; emission wavelength at 647 nm). WinList 3D (7.1) analyzed the data and Excel 2016 plotted the histogram.
FIGURE 5 CHC causes apoptosis of Bel7402/5-FU cells. […] The data (mean ± SD, percentage of apoptotic cells) represent the average of three separate experiments. *p < 0.01 vs. control.
(A flow cytometer gives signals particle by particle.)

Another data set deals with CT-DNA. Put plainly: UV-visible spectroscopy titrations with CT DNA. It is filed as binding, calf. The settings on record: 20 μM compound, equal increments of CT-DNA, 25°C. As for the experimental part:
The ultraviolet spectrophotometer (UV2500, Shimadzu, Tokyo, Japan) recorded UV–visible spectroscopy under titrations at 25°C. Tris buffer (5 mM) was used to prepare Stock solutions of CT DNA (20 μM, calf thymus DNA) comprising ideal structure of double stranded DNA. Dissolving synthesized derivative in 1:1000 DMSO/Milli Q water to prepare stock solutions of them (20 μM). UV–visible absorption titrations were carried out with addition of 100 μl CT DNA solution to 4 ml solution of tested compound in quartz cuvette each time interval. Until the absorption band of complex containing synthesized derivative and CT DNA kept at a stable wavelength after adding CT DNA successfully for five times, titrations were finished. Finally, spectrophotometer noted the absorption spectra (250–500 nm).
FIGURE 7 UV-visible absorption spectra of CHC after adding equal amounts of CT DNA. Arrows indicate changes in absorbance with increasing concentrations of DNA [CHC] = 20 μM.

For another data set, the system named is Huh7. Put plainly: MTT antiproliferative assay, Huh7. The data set is classed as cell-based. The settings on record: Homo sapiens, Huh-7, 72 h, mean ± SD of three experiments, read-out: In vitro antiproliferative activity (IC50) Huh7. How it is done:
(§1) Briefly, appropriate cells (1 × 10^4 cells/mL) were placed into 96-well plates in 100 μL of DMEM medium overnight. Then adding 100 μL of evaluated compounds into individual well for 72 h while 0.1% DMSO aqueous solution was treated as the negative control. After incubation with 30 μl MTT (5 mg/mL) for 4 h in all well, and ELISA plate reader measured absorbance of each well at 570 nm. Then calculating cytotoxicity effect of evaluated compounds through the formula: Cell inhibitory percentage (%) = (1−OD of treatment group/OD of control) × 100%.

The test system of the next data set is HCT116. Put plainly: MTT antiproliferative assay, HCT116. The settings on record: Homo sapiens, HCT-116, 72 h, mean ± SD of three experiments, read-out: In vitro antiproliferative activity (IC50) HCT116. The data set is classed as cell-based. As for the experimental part: as §1
A further data set has as its system SMMC-7721. Put plainly: MTT antiproliferative assay, SMMC-7721. The data set is classed as cell-based. The settings on record: Homo sapiens, 72 h, mean ± SD of three experiments, read-out: In vitro antiproliferative activity (IC50) SMMC-7721. As for the experimental part: as §1
On the technique in general: Formazan colour is commonly taken as a measure of viable cells.

Turning to `O=C(CCCCCCC(=O)Nc1ccccc1)NO` [SAHA, Vorinostat, reference compound], the “tumor mass at end of treatment” value in the data set with Bel7402/5-FU xenografts came out at 0.76 ± 0.11 g. The “rate of Annexin V+ Bel7402/5-FU cellular apoptosis” value with Bel7402/5-FU cells worked out at 30.8%. Moreover, the “change of UV-visible absorption upon adding CT-DNA” value in the data set on CT-DNA is “slightly increased”.

In the case of `COc1ccc2c(c1)[nH]c1c(C)nccc12` [Harmine, harmine, reference compound], the figures for the concentration for half-maximal inhibition (IC50) in the data set on Huh7, with HCT116 and with SMMC-7721 were 41.9 ± 5.06 µM, 43.8 ± 3.85 µM and 47.6 ± 5.12 µM, respectively.

Usually IC50 stands for the concentration that gives 50% inhibition.
